# Experiments:
# PDGFRA = PDGFRA (Homo sapiens, UniProt P16234); experiment: Z'-Lyte kinase panel, PDGFRA; assay type: biochemical; settings: 1.5 hrs incubation
# Procedure: (§1) Kinase activity assays were performed using the FRET-based Z′-Lyte assay according to the manufacturer’s instructions. The compounds were incubated with the kinase reaction mixture for 1.5 hrs before measurement. The data are means from two independent experiments and the variations are below 20%.
# Abl = Abl (Homo sapiens, UniProt P00519); experiment: Z'-Lyte kinase panel, Abl; assay type: biochemical; settings: 1.5 hrs incubation
# Chain of Abl (P00519 whole entry, species assumed): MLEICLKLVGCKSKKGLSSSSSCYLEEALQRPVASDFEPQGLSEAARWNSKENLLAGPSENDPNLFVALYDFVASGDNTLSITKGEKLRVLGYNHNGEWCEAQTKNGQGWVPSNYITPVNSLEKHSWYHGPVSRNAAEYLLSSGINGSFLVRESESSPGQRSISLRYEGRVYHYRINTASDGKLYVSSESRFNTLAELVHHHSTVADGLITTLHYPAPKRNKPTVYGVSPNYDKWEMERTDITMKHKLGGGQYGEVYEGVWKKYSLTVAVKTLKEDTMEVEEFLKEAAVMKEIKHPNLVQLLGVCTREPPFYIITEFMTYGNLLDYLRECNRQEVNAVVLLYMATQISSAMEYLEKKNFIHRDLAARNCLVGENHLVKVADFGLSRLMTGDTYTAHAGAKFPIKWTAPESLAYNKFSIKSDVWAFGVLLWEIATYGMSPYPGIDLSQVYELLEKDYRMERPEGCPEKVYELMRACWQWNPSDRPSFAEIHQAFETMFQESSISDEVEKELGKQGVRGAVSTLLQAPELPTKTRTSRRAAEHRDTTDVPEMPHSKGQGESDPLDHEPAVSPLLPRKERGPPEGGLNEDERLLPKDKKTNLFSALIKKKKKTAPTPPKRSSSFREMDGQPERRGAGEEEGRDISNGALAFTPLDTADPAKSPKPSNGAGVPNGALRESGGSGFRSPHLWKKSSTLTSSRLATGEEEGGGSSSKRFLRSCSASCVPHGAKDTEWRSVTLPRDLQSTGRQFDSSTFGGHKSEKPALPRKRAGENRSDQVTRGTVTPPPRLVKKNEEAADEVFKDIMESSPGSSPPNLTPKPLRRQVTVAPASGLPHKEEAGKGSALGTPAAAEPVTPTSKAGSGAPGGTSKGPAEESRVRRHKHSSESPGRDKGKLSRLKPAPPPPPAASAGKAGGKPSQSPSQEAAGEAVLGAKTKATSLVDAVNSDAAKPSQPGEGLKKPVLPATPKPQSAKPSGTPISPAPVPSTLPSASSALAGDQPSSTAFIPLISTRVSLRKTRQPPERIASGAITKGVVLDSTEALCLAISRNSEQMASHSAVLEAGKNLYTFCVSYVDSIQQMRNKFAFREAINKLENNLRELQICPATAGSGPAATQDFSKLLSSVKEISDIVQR
# Procedure: as §1
# EGFR^L858R/T790M = EGFR^L858R/T790M (Homo sapiens, UniProt P00533, L858R/T790M); experiment: Compound washout assay on H1975 cells (Western blot); assay type: cell-based; settings: 100 nmol/L for 4 h, then washout, 24 h
# Procedure: (§2) Cells were treated with various concentrations of compound for designed time. Then, cells were lysed using 1 × SDS sample lysis buffer (CST recommended) with protease and phosphatase inhibitors. Cell lysates were loaded and electrophoresed onto 8–12% SDS‐PAGE gel, and then, separated proteins were transferred to a PVDF film. The film was blocked with 5% fat‐free milk in TBS solution containing 0.5% Tween‐20 for 4 h at room temperature and then incubated with corresponding primary antibody (1:1000–1:200) overnight at 4°C. After washing with TBST, HRP‐conjugated secondary antibody was incubated for 2 h. And the protein signals were visualized by ECL Western Blotting Detection Kit (Thermo Scientific, Waltham, MA) and detected with Amersham Imager 600 system (GE, America).
# Cells were treated with or without compound YL143 for 4 h at indicated concentration, respectively. Cells were harvested for Western blot analysis. […] NCI‐H1975 cells were treated with or without compound YL143(100 nmol/L) for 4 h, and then the medium with compound was removed and fresh medium was added. At the indicated time points, cells were harvest and proteins were extracted and subjected to Western blot analysis.
# AKT2 = AKT2 (Homo sapiens, UniProt P31751); experiment: Z'-Lyte kinase panel, AKT2; assay type: biochemical; settings: 1.5 hrs incubation
# Chain of AKT2 (P31751 whole entry, species assumed): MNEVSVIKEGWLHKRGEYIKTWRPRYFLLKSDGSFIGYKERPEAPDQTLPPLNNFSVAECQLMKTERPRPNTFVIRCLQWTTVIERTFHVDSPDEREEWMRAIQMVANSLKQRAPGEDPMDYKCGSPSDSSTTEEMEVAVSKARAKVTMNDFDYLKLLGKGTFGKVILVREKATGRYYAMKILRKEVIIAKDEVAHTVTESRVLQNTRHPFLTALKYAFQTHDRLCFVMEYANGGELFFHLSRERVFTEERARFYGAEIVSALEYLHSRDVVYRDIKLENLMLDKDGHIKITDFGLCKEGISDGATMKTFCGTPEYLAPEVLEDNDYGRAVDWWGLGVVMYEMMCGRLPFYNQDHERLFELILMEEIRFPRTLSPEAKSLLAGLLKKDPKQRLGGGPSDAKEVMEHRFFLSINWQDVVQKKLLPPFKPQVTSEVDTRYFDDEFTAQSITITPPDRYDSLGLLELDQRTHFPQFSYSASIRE
# Procedure: as §1
# CSF1R = CSF1R (Homo sapiens, UniProt P07333); experiment: Z'-Lyte kinase panel, CSF1R; assay type: biochemical; settings: 1.5 hrs incubation
# Chain of CSF1R (P07333 20-972, species assumed): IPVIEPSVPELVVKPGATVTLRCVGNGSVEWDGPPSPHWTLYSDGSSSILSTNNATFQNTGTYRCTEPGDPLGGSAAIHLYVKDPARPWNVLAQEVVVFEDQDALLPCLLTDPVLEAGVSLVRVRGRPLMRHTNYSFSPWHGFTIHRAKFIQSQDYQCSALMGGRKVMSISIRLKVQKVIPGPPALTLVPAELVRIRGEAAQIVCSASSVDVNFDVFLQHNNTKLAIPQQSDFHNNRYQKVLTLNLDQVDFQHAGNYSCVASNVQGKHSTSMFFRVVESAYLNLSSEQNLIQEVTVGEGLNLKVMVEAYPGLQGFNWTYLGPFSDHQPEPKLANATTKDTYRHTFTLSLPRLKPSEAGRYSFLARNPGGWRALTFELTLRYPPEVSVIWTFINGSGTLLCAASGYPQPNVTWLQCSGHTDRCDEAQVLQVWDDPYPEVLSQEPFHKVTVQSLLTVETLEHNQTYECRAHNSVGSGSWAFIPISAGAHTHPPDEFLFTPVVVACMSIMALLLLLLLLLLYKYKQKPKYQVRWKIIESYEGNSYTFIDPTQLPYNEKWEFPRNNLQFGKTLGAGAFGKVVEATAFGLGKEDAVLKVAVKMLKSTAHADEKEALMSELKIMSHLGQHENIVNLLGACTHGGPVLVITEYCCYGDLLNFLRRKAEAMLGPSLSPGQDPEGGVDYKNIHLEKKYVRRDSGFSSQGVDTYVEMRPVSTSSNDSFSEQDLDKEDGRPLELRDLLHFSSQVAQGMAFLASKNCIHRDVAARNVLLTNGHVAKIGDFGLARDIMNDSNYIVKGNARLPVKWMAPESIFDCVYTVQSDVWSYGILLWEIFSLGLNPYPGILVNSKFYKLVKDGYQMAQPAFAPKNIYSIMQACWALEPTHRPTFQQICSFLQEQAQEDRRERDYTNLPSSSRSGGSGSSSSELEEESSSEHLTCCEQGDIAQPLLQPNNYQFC
# Procedure: as §1
# IGF1R = IGF1R (Homo sapiens, UniProt P08069); experiment: FRET-based Z'-Lyte kinase assay, IGF1R; assay type: biochemical; settings: AV ± SD; 1.5 h incubation
# Procedure: (§3) The kinase activity assay was performed and optimized according to the instructions of Z’‐LYTE™ kinase assay kits from the manufacturer (PV4879, Life, America). In our experiments, 10 concentration gradients from 0.01 nmol/L to 1.0 μmol/L were used for all the compounds.
# BaF3-EGFR ^L858R = experiment: CCK-8 assay, BaF3-EGFR L858R stable cells; assay type: cell-based; settings: Ba/F3 EGFR-L858R; CCK-8; AV±SD; read-out: anti-proliferative activity BaF3-EGFR L858R
# Procedure: Cells were seeded into 96‐well plates at a density of 1500~3000/well in complete medium overnight. Then, cells were treated with various concentrations (0.01~1000 nmol/L) of YL143 for additional 3 days. Viable cell numbers were determined by Cell Counting Kit 8 (CCK8, CK04, Dojindo Laboratories, Japan). Each assay consisted of three replicate wells and repeated at least three times. […] Each IC50 value was expressed as mean ± SD.
# The anti-proliferative activities of the compounds were evaluated using CCK-8 assay. The data were means from at least four independent experiments.
# [1] = system: CDK2, CDK4, cyclin D2, cyclin E, caspase-3, caspase-9 in H1975 cells; experiment: Western blot of cell cycle and apoptosis proteins in H1975 cells; assay type: cell-based, human; settings: 3 to 300 nmol/L, 48 h
# Procedure: as §2
# Figure 3 YL143 induces G0/G1 cell cycle arrest and apoptosis in H1975 cells. (A) YL143 induces G0/G1 cell cycle arrest in H1975 cells H1975 cells were treated with 3, 30 or 300 nmol/L for 48 h before DNA labeling by propidium iodide and cell cycle analysis by flow cytometry. (B) YL143 induces apoptosis in H1975 cells. H1975 cells were treated with 3, 30 or 300 nmol/L for 48 h before DNA labeling by Annexin V and 7‐AAD and cell apoptosis analysis by flow cytometry. (C) The effect of YL143 on the expression of CDK4, Cyclin D2, CDK2, Cyclin E, Caspase‐9 and Caspase‐3 was tested by western blotting. […]
# EGFR^L858R = molecular target: T1, EGFR^L858R (Homo sapiens, UniProt P00533, L858R); experiment: FRET-based Z'-Lyte kinase assay, EGFR L858R; assay type: biochemical; settings: AV ± SD; 1.5 h incubation
# T1 construct: purchased Invitrogen
# Procedure: as §3
# FLT3 = FLT3 (Homo sapiens, UniProt P36888); experiment: Z'-Lyte kinase panel, FLT3; assay type: biochemical; settings: 1.5 hrs incubation
# Chain of FLT3 (P36888 27-993, species assumed): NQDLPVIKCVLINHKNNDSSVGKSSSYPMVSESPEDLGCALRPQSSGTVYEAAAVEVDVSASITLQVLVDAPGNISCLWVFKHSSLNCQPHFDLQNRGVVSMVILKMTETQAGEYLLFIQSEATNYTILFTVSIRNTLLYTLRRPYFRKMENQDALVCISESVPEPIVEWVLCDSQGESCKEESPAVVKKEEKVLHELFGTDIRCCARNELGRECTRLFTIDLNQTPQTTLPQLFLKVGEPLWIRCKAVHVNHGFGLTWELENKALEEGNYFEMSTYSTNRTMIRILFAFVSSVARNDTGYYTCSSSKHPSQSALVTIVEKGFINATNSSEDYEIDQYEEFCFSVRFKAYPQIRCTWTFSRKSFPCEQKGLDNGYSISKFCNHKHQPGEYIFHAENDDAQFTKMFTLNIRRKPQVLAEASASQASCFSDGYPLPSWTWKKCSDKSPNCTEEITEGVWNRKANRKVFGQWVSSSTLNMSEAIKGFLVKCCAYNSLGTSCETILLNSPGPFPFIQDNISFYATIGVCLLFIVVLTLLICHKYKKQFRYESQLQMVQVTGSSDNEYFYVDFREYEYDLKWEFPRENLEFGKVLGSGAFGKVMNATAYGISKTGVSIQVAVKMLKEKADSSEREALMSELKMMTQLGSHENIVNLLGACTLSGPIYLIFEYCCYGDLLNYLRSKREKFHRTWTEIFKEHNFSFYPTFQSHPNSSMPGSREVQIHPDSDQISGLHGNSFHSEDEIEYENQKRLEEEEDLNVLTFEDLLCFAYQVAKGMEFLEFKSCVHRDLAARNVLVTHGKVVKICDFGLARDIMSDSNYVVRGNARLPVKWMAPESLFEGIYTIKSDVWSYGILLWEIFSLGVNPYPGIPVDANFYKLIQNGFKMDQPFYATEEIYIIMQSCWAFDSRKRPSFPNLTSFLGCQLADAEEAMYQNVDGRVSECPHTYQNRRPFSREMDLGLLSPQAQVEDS
# Procedure: as §1
# Chain of PDGFRA (P16234 24-1089, species assumed): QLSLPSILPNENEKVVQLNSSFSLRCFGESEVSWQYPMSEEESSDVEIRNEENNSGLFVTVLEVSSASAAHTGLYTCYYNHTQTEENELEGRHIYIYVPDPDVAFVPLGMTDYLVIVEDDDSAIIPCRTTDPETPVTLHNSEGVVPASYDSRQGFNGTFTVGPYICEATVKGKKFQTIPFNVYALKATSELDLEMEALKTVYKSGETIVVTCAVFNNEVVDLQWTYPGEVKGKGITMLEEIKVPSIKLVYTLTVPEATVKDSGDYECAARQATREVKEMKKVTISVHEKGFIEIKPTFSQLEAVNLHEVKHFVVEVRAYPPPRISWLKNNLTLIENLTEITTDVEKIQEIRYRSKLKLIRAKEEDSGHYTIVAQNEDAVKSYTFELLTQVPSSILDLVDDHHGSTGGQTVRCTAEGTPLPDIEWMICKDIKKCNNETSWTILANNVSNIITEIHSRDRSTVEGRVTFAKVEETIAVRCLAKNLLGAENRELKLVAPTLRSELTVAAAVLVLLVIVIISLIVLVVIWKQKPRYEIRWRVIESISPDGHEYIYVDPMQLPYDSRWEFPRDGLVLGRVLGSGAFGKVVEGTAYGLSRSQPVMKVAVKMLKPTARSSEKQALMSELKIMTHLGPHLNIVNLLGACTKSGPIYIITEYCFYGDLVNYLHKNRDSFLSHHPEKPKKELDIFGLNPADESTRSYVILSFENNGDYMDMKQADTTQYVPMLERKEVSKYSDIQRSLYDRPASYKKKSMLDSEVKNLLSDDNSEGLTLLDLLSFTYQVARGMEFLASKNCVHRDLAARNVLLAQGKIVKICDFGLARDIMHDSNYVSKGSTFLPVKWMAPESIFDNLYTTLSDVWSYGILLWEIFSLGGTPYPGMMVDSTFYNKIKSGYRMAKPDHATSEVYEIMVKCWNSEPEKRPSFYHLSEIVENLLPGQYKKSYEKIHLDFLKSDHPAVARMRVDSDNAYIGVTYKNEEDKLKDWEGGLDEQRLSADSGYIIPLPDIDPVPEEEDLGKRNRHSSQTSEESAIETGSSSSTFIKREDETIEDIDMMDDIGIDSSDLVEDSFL
smiles,measurement,setting,value
"C=CC(=O)Nc1cc(C)cc(-n2c(=O)cc(C)c3cnc(Nc4ccc(N5CCN(C)CC5)cc4OC)nc32)c1 [YL143, N‐(3‐(2‐((2‐Methoxy‐4‐(4‐methylpiperazin‐1‐yl)phenyl)amino)‐5‐methyl‐7‐oxopyrido [2,3‐d]pyrimidin‐8(7H)‐yl)‐5‐methylphenyl)acrylamide]",IC50,PDGFRA,> 10 µM
same,IC50,Abl,> 10 µM
same,EGFR^L858R/T790M phosphorylation recovery after withdrawal,EGFR^L858R/T790M,no EGFR^L858R/T790M phosphorylation recovery was observed
same,IC50,AKT2,> 10 µM
same,IC50,CSF1R,> 10 µM
same,IC50,IGF1R,> 1 µM
same,IC50,BaF3-EGFR ^L858R,0.071 ± 0.041 µM
same,"protein levels of CDK2, CDK4, cyclin D2, cyclin E",[1],dose‐dependently decreased
same,IC50,EGFR^L858R,0.0491 ± 0.0042 µM
same,IC50,FLT3,> 10 µM
